Key:
[1] = Binding of metal complexes to particulate carrier (1H NMR relaxation of supernatant); settings: to magnesium trisilicate; 0.4ml 50mM metal complex, pH 7.5, 3 minutes
[2] = as above; settings: to sodium phosphate glass; 0.4ml 50mM metal complex, pH 7.5, 3 minutes
[3] = as above; settings: to calcium phosphate basic; 0.4ml 50mM metal complex, pH 7.5, 3 minutes
[4] = as above; settings: to aluminium phosphate; 0.4ml 50mM metal complex, pH 7.5, 3 minutes
[5] = as above; settings: to calcium phosphate neutral; 0.4ml 50mM metal complex, pH 7.5, 3 minutes
[6] = as above; settings: to calcium pyrophosphate; 0.4ml 50mM metal complex, pH 7.5, 3 minutes
[7] = as above; settings: to calcium hydroxide; 0.4ml 50mM metal complex, pH 7.5, 3 minutes
[8] = as above; settings: to aluminium hydroxide; 0.4ml 50mM metal complex, pH 7.5, 3 minutes
[9] = as above; settings: to silica; 0.4ml 50mM metal complex, pH 7.5, 3 minutes
[10] = as above; settings: to magnesium hydroxide; 0.4ml 50mM metal complex, pH 7.5, 3 minutes
[11] = Binding of 153Gd labelled gadolinium complexes, radioactive assay; settings: total activity of the filtrate as percentage of the original; 12.5mM Gd, 25mM phosphonate where present
Description: The binding of gadolinium complexes was also assayed using ¹⁵³Gd labelled solutions. The particulates were used as suspensions (250mg/ml) and isolated by centrifugation. 0.4ml of a radioactively labelled gadolinium complex was then added and the solid resuspended. After three minutes the solid was filtered through a glass sinter and washed with water (≃10ml). The total activity of the filtrate was measured and expressed as a percentage of the original. The gadolinium concentration of the complex in this assay was 12.5mM and the concentration of phosphonate (where present) was 25mM. A further assay involved the addition of 25mM, and 37.5mM Gd with concomitant increase in the phosphonate concentration.

[12] = Stability of 153Gd labelled adducts in acid solution; type: physicochemical; settings: 5ml 0.2M HCl, 24hrs, percentage of the original activity
Description: The stability of the adducts in acid solution was assayed using ¹⁵³Gd labelled adducts. The adducts were prepared as in the binding assays described previously. 5ml of 0.2M HCl was then added to the adduct which was resuspended and left for 24hrs. The suspensions were then filtered through a glass sinter and washed with 5ml distilled water. The total filtrate was then placed into an ion chamber and the total activity measured.

[13] = Binding of metal complexes to particulate carrier (1H NMR relaxation of supernatant); settings: to calcium phosphate ortho; 0.4ml 50mM metal complex, pH 7.5, 3 minutes

Row | % Bound [1] | % Bound [2] | % Bound [3] | % Bound [5] | % Bound [6] | % Bound [7] | % Bound [8] | % Bound [9] | % Bound [10] | BINDING TO CaPO₄ - RADIOACTIVE ASSAY [11] | BINDING TO CaPYROPHOSPHATE - RADIOACTIVE ASSAY [11] | PERCENTAGE ACTIVITY IN SUPERNATANT ([12]; adduct with Ca₂P₂O₇) | PERCENTAGE ACTIVITY IN SUPERNATANT ([12]; adduct with Ca₃(PO₄)₂) | Compound | % Bound [4] | % Bound [13]
1 | 93% | 41% | 96% | 92% | 50% | 98% | 89% | 46% | 96% |  |  |  |  | [Cl][Fe]([Cl])[Cl] [FeCl₃] | 78% | 
2 | 89% | 48% | 99% | 98% | 68% | 99% | 98% | 66% | 99% | 2.07% | 0.14% | 0.41% | 0.54% | [Cl][Gd]([Cl])[Cl] [GdCl₃] |  | 

Row | Compound | % Bound [1] | % Bound [2] | % Bound [3] | % Bound [5] | % Bound [6] | % Bound [7] | % Bound [8] | % Bound [9] | % Bound [10] | BINDING TO CaPO₄ - RADIOACTIVE ASSAY [11] | BINDING TO CaPYROPHOSPHATE - RADIOACTIVE ASSAY [11] | PERCENTAGE ACTIVITY IN SUPERNATANT ([12]; adduct with Ca₂P₂O₇) | PERCENTAGE ACTIVITY IN SUPERNATANT ([12]; adduct with Ca₃(PO₄)₂) | % Bound [4] | % Bound [13]
3 | ferric citrate | 50% | 26% | 80% | 68% | 28% | 74% | 80% | 16% | 89% |  |  |  |  | 18% | 82%
